Reference: patent US12653190B2, “Heteroaryl-triazole compounds as pesticides” (Bayer Aktiengesellschaft, priority 2020, dated 2026)

Columns and labels:
Type in all cases: in vivo
[1] = test system: adult unfed cat fleas (Ctenocephalides felis); test: Ctenocephalides felis oral test; conditions: 48 h, 100 ppm in cattle blood, after 2 days
Procedure, shortened: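 About 20 adult unfed fleas feed through parafilm on cattle blood spiked with compound (DMSO stock diluted in blood); blood held at 37° C., fleas at room temperature. Mortality (%) scored after 2 days, 100% meaning all fleas killed.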

[2] = test system: adult mosquitoes Culex quinquefasciatus strain P00; test: Culex quinquefasciatus test (CULXFA surface treatment & contact assay); conditions: surface concentration 20 mg/m^2, 30 minutes exposure, 24 hours after contact, read-out: efficacy (mortality)
Method: Culex quinquefasciatus Test (CULXFA Surface Treatment & Contact Assay)
• Solvent: Aceton+2000 ppm rapeseed oil methyl ester (RME)
In order to produce a sufficient, active ingredient containing solution it is necessary to solve the test compound in the solvent-mix (acetone at 2 mg/ml/RME 2 000 ppm). This solution is pipetted onto a glazed tile and after evaporation of the acetone, adult mosquitoes of the species Culex Quinquefasciatus strain P00 are placed onto the dried surface. The exposure time is 30 minutes. Mortality in percent (%) is determined 24 hours after contact of the insects to the treated surface. 100% mortality means that all tested insects are dead, whereas 0% means that no insect died.

[3] = test system: adult cat fleas (Ctenocephalides felis); test: Ctenocephalides felis in-vitro contact test, adult cat flea; conditions: 5 μg/cm^2 (=500 g/ha), after 48 hours, read-out: efficacy (fleas dead or moribund)
Procedure, shortened: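 Compound in acetone coated onto inner walls of glass tubes (900 ppm solution giving 5 μg/cm^2); after drying, 5-10 adult fleas added and kept at room temperature. At 48 h, fleas placed on 45-50 °C plate ≤5 min; immotile or uncoordinated ones scored dead/moribund; efficacy as % dead/moribund.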

## C[C@H](NC(=O)c1cc(Cl)cc(OS(C)(=O)=O)c1)c1ncnn1-c1ccc(C#N)cn1 [Example I-46]
[1]
  mortality at 100 ppm: 100%
[2]
  mortality at 20 mg/m2: 80 to 100%
[3]
  pest or weed control at 5 µg/cm2, 5 µg/cm2: 100%
